From PubChem BioAssay AID1259407 (Chemical Carcinogenesis Research Information System (CCRIS), 2018)
The source made the active and inactive calls. The rule behind the calls is not given here.

System: CCRIS mutagenicity, Ames/micronucleus/aberration tests
Assay: CCRIS mutagenicity studies
[1] = Test System: AMES SALMONELLA TYPHIMURIUM, Strain/Indicator: TA100, Metabolic Activation: NONE, Method: PREINCUBATION
[2] = Test System: AMES SALMONELLA TYPHIMURIUM, Strain/Indicator: TA98, Metabolic Activation: NONE, Method: STANDARD PLATE
[3] = Test System: AMES SALMONELLA TYPHIMURIUM, Strain/Indicator: TA98, Metabolic Activation: RAT, LIVER, S-9, AROCLOR 1254, Method: STANDARD PLATE
[4] = Test System: AMES SALMONELLA TYPHIMURIUM, Strain/Indicator: TA100, Metabolic Activation: NONE, Method: STANDARD PLATE
[5] = Test System: AMES SALMONELLA TYPHIMURIUM, Strain/Indicator: TA100, Metabolic Activation: RAT, LIVER, S-9, AROCLOR 1254, Method: STANDARD PLATE

With `Nc1cc(Cl)ccc1O` the mutagenic call (End Point: In vitro chromosomal aberrations, Test System: Chinese hamster lung (CHL/IU) cells, Metabolic Activation: Rat, Liver, S9, Phenobarbital and 5,6-benzoflavone) was “active; positive (structural changes and ploidy). structural changes not dose related”, the mutagenic call (Test System: AMES SALMONELLA TYPHIMURIUM, Strain/Indicator: TA97, Metabolic Activation: HAMSTER, LIVER, S-9, AROCLOR 1254 (10%), Method: PREINCUBATION) was “inactive; negative” and the mutagenic call (Test System: AMES SALMONELLA TYPHIMURIUM, Strain/Indicator: TA97, Metabolic Activation: HAMSTER, LIVER, S-9, AROCLOR 1254 (30%), Method: PREINCUBATION) was “inactive; negative”. For the same compound, the mutagenic call (Test System: AMES SALMONELLA TYPHIMURIUM, Strain/Indicator: TA97, Metabolic Activation: NONE, Method: PREINCUBATION) was “inactive; negative”, the mutagenic call (Test System: AMES SALMONELLA TYPHIMURIUM, Strain/Indicator: TA97, Metabolic Activation: RAT, LIVER, S-9, AROCLOR 1254 (10%), Method: PREINCUBATION) was “inactive; negative” and the mutagenic call (Test System: AMES SALMONELLA TYPHIMURIUM, Strain/Indicator: TA97, Metabolic Activation: RAT, LIVER, S-9, AROCLOR 1254 (30%), Method: PREINCUBATION) was “inactive; negative”. For the same compound, the mutagenic call (Test System: AMES SALMONELLA TYPHIMURIUM, Strain/Indicator: TA98, Metabolic Activation: HAMSTER, LIVER, S-9, AROCLOR 1254 (10%), Method: PREINCUBATION) was “inactive; negative”, the mutagenic call (Test System: AMES SALMONELLA TYPHIMURIUM, Strain/Indicator: TA98, Metabolic Activation: NONE, Method: PREINCUBATION) was “inactive; negative” and the mutagenic call (Test System: AMES SALMONELLA TYPHIMURIUM, Strain/Indicator: TA98, Metabolic Activation: RAT, LIVER, S-9, AROCLOR 1254 (10%), Method: PREINCUBATION) was “inactive; negative”. For the same compound, the mutagenic call (Test System: AMES SALMONELLA TYPHIMURIUM, Strain/Indicator: TA98, Metabolic Activation: RAT, LIVER, S-9, PHENOBARBITAL AND BETA-NAPHTHOFLAVONE, Method: PREINCUBATION) was “inactive; negative”, the mutagenic call (Test System: AMES SALMONELLA TYPHIMURIUM, Strain/Indicator: TA100, Metabolic Activation: HAMSTER, LIVER, S-9, AROCLOR 1254 (10%), Method: PREINCUBATION) was “inactive; negative” and the mutagenic call [1] was “inactive; negative”. The mutagenic call (Test System: AMES SALMONELLA TYPHIMURIUM, Strain/Indicator: TA100, Metabolic Activation: RAT, LIVER, S-9, AROCLOR 1254 (10%), Method: PREINCUBATION) was “inactive; negative”, the mutagenic call (Test System: AMES SALMONELLA TYPHIMURIUM, Strain/Indicator: TA1535, Metabolic Activation: HAMSTER, LIVER, S-9, AROCLOR 1254 (5%), Method: PREINCUBATION) was “active; positive” and the mutagenic call (Test System: AMES SALMONELLA TYPHIMURIUM, Strain/Indicator: TA1535, Metabolic Activation: HAMSTER, LIVER, S-9, AROCLOR 1254 (10%), Method: PREINCUBATION) was “active; positive”. The mutagenic call (Test System: AMES SALMONELLA TYPHIMURIUM, Strain/Indicator: TA1535, Metabolic Activation: HAMSTER, LIVER, S-9, AROCLOR 1254 (30%), Method: PREINCUBATION) was “active; positive”, the mutagenic call (Test System: AMES SALMONELLA TYPHIMURIUM, Strain/Indicator: TA1535, Metabolic Activation: NONE, Method: PREINCUBATION) was “inactive; negative” and the mutagenic call (Test System: AMES SALMONELLA TYPHIMURIUM, Strain/Indicator: TA1535, Metabolic Activation: RAT, LIVER, S-9, AROCLOR 1254 (5%), Method: PREINCUBATION) was “active; positive”. The mutagenic call (Test System: AMES SALMONELLA TYPHIMURIUM, Strain/Indicator: TA1535, Metabolic Activation: RAT, LIVER, S-9, AROCLOR 1254 (10%), Method: PREINCUBATION) was “active; positive”, the mutagenic call (Test System: AMES SALMONELLA TYPHIMURIUM, Strain/Indicator: TA1535, Metabolic Activation: RAT, LIVER, S-9, AROCLOR 1254 (30%), Method: PREINCUBATION) was “inactive; negative” and the mutagenic call (Test System: AMES SALMONELLA TYPHIMURIUM, Strain/Indicator: TA1535, Metabolic Activation: RAT, LIVER, S-9, PHENOBARBITAL AND BETA-NAPHTHOFLAVONE, Method: PREINCUBATION) was “inactive; negative”. For the same compound, the mutagenic call (Test System: AMES SALMONELLA TYPHIMURIUM, Strain/Indicator: TA1537, Metabolic Activation: NONE, Method: PREINCUBATION) was “inactive; negative”, the mutagenic call (Test System: E. COLI, Strain/Indicator: WP2UVRA, Metabolic Activation: NONE, Method: PREINCUBATION) was “inactive; negative” and the mutagenic call (Test System: E. COLI, Strain/Indicator: WP2UVRA, Metabolic Activation: RAT, LIVER, S-9, PHENOBARBITAL AND BETA-NAPHTHOFLAVONE, Method: PREINCUBATION) was “inactive; negative”.
`Nc1ccc(/C=C/C(=O)O)cc1` was tested, and the mutagenic call [2] was “inactive; negative”, the mutagenic call [3] was “inactive; negative” and the mutagenic call [1] was “inactive; negative”. For the same compound, the mutagenic call [4] was “inactive; negative”, the mutagenic call (Test System: AMES SALMONELLA TYPHIMURIUM, Strain/Indicator: TA100, Metabolic Activation: RAT, LIVER, S-9, AROCLOR 1254, Method: PREINCUBATION) was “inactive; negative” and the mutagenic call [5] was “inactive; negative”.
With `CC1(C)CC(C(=O)NC(CO)C(O)CO)C(C)(C)N1O` (stereo unspecified) the mutagenic call (Test System: CHO, Strain/Indicator: CHO/6-THIOGUANINE, Metabolic Activation: NONE, Method: STANDARD PLATE) was “inactive; negative”, the mutagenic call (Test System: CHO, Strain/Indicator: CHO/6-THIOGUANINE, Metabolic Activation: RAT, LIVER, S-9, AROCLOR 1254, Method: STANDARD PLATE) was “inactive; negative” and the mutagenic call (Test System: CHO, Strain/Indicator: CHO/OUABAIN, Metabolic Activation: NONE, Method: STANDARD PLATE) was “inactive; negative”. The mutagenic call (Test System: CHO, Strain/Indicator: CHO/OUABAIN, Metabolic Activation: RAT, LIVER, S-9, AROCLOR 1254, Method: STANDARD PLATE) was “inactive; negative”.
`O=[N+]([O-])c1ccc(Oc2ccc(Cl)cc2Cl)cc1` was tested, and the mutagenic call (Test System: AMES SALMONELLA TYPHIMURIUM, Strain/Indicator: TA98, Metabolic Activation: S-9, Method: STANDARD PLATE) was “inactive; negative”, the mutagenic call [4] was “active; positive” and the mutagenic call (Test System: AMES SALMONELLA TYPHIMURIUM, Strain/Indicator: TA100, Metabolic Activation: S-9, Method: STANDARD PLATE) was “inactive; negative”. For the same compound, the mutagenic call (Test System: AMES SALMONELLA TYPHIMURIUM, Strain/Indicator: TA100, Metabolic Activation: S-9 MIX, Method: STANDARD PLATE) was “active; positive”, the mutagenic call (Test System: AMES SALMONELLA TYPHIMURIUM, Strain/Indicator: YG1021, Metabolic Activation: S-9, Method: STANDARD PLATE) was “inactive; negative” and the mutagenic call (Test System: AMES SALMONELLA TYPHIMURIUM, Strain/Indicator: YG1024, Metabolic Activation: S-9, Method: STANDARD PLATE) was “inactive; negative”. The mutagenic call (Test System: AMES SALMONELLA TYPHIMURIUM, Strain/Indicator: YG1026, Metabolic Activation: S-9, Method: STANDARD PLATE) was “active; positive”, the mutagenic call (Test System: AMES SALMONELLA TYPHIMURIUM, Strain/Indicator: YG1029, Metabolic Activation: S-9, Method: STANDARD PLATE) was “active; positive” and the mutagenic call (Test System: E. COLI, Strain/Indicator: WP2 UVRA, Metabolic Activation: HAMSTER, LIVER, S-9, AROCLOR 1254, Method: STANDARD PLATE) was “inactive; negative”. The mutagenic call (Test System: E. COLI, Strain/Indicator: WP2 UVRA, Metabolic Activation: HAMSTER, LIVER, S-9, Method: STANDARD PLATE) was “inactive; negative”, the mutagenic call (Test System: E. COLI, Strain/Indicator: WP2 UVRA, Metabolic Activation: MOUSE, LIVER, S-9, AROCLOR 1254, Method: STANDARD PLATE) was “inactive; negative” and the mutagenic call (Test System: E. COLI, Strain/Indicator: WP2 UVRA, Metabolic Activation: MOUSE, LIVER, S-9, Method: STANDARD PLATE) was “inactive; negative”. For the same compound, the mutagenic call (Test System: E. COLI, Strain/Indicator: WP2 UVRA, Metabolic Activation: NONE, Method: STANDARD PLATE) was “inactive; negative”, the mutagenic call (Test System: E. COLI, Strain/Indicator: WP2 UVRA, Metabolic Activation: RAT, LIVER, S-9, AROCLOR 1254, Method: STANDARD PLATE) was “inactive; negative” and the mutagenic call (Test System: E. COLI, Strain/Indicator: WP2 UVRA, Metabolic Activation: RAT, LIVER, S-9, Method: STANDARD PLATE) was “inactive; negative”. The mutagenic call (Test System: MOUSE LYMPHOMA, Strain/Indicator: L5178Y (HPRT), Metabolic Activation: NONE, Method: SUSPENSION/PLATE) was “inactive; negative” and the mutagenic call (Test System: MOUSE LYMPHOMA, Strain/Indicator: L5178Y (TK+/TK-), Metabolic Activation: NONE, Method: SUSPENSION/PLATE) was “inactive; negative”.
For `C=C(C)C1C=C2C(COC(=O)CCCCCCCCCCCCCCCCC)=CC=C2C(C)=CC1` (stereo unspecified), the mutagenic call [2] was “inactive; negative”, the mutagenic call [3] was “inactive; negative” and the mutagenic call [4] was “active; positive”. For the same compound, the mutagenic call [5] was “active; positive”.
For `O=C/C=C/C=C/CO`, the mutagenic call (Test System: CHINESE HAMSTER V-79, Strain/Indicator: V-79 (HGPRT)/8-AZAGUANINE, Metabolic Activation: NONE) was “active; positive”.
